Holding throughout (assay): biochemical
Holding throughout (parameters): In vitro kinase panel profiling, per cent remaining kinase activity at 10 uM

One test has as its target T1, PRAK(h) (Homo sapiens, UniProt Q8IW41).
T1 construct: gene MAPKAPK5
T1 sequence (Q8IW41 1-473): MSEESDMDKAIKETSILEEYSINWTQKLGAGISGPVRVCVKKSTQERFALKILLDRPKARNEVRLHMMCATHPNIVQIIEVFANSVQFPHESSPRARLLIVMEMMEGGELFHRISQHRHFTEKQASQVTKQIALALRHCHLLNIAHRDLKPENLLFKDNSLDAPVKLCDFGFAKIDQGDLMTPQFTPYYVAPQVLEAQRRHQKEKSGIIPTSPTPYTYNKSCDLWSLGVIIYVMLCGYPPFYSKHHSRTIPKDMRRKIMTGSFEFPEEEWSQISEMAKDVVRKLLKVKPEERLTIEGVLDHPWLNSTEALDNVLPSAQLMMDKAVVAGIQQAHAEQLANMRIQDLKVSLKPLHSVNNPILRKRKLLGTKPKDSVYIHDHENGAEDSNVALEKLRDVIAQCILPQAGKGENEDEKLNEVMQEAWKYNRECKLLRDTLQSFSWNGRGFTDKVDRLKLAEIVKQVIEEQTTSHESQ
The settings on record: atp_concentration=15, read-out: % of control remaining. The source says: (§1) We derisk potential for off-target activity by profiling the compound in a CEREP panel, a standard secondary pharmacology assessment, as well as a kinase panel to derisk a potential hinge-binding motif in our leads, and a PARP panel to derisk activity against human […]. Reassuringly, the compounds are selective, with the only off-targets being moderate human CHRM2 and KOR receptors activity associated with ASAP-0011198.

A further test concerns the target T2, PI3 Kinase (p120γ)(h) (Homo sapiens, UniProt P48736).
T2 construct: gene PIK3CG
The settings on record: atp_concentration=100, read-out: % of control remaining.
Source text: as §1

Another test concerns the target T3, NEK2(h) (Homo sapiens, UniProt P51955).
T3 sequence (P51955 1-445): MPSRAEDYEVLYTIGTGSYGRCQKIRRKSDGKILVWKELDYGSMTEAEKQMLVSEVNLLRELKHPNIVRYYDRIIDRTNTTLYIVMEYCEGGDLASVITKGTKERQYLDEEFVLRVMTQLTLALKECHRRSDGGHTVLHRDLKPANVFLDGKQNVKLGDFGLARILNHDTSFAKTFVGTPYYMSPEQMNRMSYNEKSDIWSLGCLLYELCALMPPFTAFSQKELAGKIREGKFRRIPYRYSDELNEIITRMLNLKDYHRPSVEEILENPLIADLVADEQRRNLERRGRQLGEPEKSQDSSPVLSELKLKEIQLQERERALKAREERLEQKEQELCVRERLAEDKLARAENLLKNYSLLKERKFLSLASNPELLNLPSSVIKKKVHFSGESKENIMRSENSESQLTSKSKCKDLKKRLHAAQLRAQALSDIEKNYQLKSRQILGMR
The settings on record: atp_concentration=120, read-out: % of control remaining.
Source text: as §1

Test [1] deals with T4, PI3 Kinase (p110β/p85α)(h) (Homo sapiens, UniProt P42338).
T4 construct: gene PIK3CB
The settings on record: atp_concentration=200, read-out: % of control remaining.
Source text: as §1

In the next test the target is T5, IGF-1R(h) (Homo sapiens, UniProt P08069).
T5 construct: gene IGF1R
T5 sequence (P08069 whole entry): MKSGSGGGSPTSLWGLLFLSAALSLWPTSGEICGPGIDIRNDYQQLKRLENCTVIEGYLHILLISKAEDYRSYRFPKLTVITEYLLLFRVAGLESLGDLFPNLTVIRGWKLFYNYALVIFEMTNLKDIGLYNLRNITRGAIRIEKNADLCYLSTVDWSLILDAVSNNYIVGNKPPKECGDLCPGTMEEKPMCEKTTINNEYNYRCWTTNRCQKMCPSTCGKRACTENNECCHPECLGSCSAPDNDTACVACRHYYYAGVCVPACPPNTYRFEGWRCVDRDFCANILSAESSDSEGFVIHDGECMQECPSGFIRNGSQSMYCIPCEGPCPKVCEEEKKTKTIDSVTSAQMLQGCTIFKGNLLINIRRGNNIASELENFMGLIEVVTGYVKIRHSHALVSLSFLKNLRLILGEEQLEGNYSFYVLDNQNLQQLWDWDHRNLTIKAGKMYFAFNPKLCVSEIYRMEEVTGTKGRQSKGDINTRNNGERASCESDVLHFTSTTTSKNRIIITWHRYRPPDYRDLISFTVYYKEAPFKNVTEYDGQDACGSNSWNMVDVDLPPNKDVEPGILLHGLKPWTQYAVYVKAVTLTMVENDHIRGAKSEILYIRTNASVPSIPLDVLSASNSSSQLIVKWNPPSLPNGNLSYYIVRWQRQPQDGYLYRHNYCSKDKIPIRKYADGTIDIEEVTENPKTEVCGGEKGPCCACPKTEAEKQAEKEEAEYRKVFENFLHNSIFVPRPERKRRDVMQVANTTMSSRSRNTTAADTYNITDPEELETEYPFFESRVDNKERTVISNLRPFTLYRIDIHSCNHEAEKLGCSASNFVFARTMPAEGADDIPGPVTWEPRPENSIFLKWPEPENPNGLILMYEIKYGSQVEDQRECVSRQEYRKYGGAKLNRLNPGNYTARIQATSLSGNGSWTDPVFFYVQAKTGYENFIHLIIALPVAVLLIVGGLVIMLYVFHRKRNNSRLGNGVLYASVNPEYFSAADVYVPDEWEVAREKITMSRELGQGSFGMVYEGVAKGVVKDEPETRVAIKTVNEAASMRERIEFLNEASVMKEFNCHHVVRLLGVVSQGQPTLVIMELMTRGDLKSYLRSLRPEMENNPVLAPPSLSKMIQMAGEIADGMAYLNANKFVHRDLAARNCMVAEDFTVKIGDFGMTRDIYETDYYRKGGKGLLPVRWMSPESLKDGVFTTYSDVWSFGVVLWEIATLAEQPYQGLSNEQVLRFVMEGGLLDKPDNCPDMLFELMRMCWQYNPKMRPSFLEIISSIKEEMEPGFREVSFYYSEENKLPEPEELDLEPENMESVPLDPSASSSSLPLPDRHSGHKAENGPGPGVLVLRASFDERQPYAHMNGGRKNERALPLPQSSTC
The settings on record: atp_concentration=200, read-out: % of control remaining.
Source text: as §1

A further test deals with T6, c-RAF(h) (Homo sapiens, UniProt P04049).
T6 construct: gene RAF1
T6 sequence (P04049 whole entry): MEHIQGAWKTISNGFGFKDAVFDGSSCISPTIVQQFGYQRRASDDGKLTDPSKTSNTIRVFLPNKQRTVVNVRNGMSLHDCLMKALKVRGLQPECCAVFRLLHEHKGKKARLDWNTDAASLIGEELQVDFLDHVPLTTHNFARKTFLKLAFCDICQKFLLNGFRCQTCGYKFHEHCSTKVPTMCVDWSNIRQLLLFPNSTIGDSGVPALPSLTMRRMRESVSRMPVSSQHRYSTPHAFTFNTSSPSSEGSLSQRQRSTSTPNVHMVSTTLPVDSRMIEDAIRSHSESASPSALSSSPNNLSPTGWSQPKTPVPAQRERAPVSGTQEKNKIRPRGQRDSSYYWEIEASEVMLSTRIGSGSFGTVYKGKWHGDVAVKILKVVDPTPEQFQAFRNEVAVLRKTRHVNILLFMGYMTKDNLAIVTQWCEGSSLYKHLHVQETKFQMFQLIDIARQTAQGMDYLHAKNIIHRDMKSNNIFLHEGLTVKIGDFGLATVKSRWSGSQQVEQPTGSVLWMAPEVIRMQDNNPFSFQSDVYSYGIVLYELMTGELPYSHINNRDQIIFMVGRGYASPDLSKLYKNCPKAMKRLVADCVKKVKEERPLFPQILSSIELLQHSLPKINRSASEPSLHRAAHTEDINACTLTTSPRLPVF
The settings on record: atp_concentration=120, read-out: % of control remaining.
Source text: as §1

For a further test, the target named is T7, AMPKα1(h) (Homo sapiens, UniProt Q13131).
T7 construct: gene PRKAA1
T7 sequence (Q13131 whole entry): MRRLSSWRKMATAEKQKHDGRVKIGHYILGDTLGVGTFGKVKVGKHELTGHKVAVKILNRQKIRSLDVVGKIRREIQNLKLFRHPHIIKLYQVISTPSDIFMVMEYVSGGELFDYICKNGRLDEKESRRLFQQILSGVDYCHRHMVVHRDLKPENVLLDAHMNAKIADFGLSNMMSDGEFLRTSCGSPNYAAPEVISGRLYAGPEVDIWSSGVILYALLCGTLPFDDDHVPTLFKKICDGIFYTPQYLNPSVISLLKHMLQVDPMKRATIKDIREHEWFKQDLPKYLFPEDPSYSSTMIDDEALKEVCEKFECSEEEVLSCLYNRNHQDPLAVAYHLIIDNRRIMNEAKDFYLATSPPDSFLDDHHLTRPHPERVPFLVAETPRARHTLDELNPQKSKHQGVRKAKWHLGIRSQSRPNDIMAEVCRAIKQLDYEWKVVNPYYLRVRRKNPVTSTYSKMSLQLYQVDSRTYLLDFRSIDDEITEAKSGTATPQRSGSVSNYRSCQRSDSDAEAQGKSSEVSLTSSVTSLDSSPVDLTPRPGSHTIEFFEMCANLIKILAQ
T7 sequence (P54619 whole entry partner): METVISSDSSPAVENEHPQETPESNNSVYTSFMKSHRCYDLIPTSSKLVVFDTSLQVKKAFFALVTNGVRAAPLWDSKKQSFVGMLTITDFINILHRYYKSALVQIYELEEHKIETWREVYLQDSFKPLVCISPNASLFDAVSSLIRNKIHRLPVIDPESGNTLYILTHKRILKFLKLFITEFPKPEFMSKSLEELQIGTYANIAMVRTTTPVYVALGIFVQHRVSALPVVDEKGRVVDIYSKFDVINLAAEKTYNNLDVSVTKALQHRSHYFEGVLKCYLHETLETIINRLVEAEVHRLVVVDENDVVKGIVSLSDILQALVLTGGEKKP
T7 sequence (Q9Y478 whole entry partner): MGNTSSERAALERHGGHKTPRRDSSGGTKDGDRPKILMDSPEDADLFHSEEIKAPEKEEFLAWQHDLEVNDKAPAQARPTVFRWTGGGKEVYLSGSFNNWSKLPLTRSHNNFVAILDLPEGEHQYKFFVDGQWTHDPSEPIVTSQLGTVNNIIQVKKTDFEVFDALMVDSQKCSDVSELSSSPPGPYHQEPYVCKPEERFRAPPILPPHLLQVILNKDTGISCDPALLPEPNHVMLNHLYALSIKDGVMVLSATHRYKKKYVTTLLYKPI
The settings on record: atp_concentration=45, read-out: % of control remaining.
Source text: as §1

The next test has as its target PAK2(h) (Homo sapiens, UniProt Q13177). The settings on record: atp_concentration=90, read-out: % of control remaining.
Source text: as §1

Another test concerns the target T8, eEF-2K(h) (Homo sapiens, UniProt O00418).
T8 construct: gene EEF2K
T8 sequence (O00418 1-725): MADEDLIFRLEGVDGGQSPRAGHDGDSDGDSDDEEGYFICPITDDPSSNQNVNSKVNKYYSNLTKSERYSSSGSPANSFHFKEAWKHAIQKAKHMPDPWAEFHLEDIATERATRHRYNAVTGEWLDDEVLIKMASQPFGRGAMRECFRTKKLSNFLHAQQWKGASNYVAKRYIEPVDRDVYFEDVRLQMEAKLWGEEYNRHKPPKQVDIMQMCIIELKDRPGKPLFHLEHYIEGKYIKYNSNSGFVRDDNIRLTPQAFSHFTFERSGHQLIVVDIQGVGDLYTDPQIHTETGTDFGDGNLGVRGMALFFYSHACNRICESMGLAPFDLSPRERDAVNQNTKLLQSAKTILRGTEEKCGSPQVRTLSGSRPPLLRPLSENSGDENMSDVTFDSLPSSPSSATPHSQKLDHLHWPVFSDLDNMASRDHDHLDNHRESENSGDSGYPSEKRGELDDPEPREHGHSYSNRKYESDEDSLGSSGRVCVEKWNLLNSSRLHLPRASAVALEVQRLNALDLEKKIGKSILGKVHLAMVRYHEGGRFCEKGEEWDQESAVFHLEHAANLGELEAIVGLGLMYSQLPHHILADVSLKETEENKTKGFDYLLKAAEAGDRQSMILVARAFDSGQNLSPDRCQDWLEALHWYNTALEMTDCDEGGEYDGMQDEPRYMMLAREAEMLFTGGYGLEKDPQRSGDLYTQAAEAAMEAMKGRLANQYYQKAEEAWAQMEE
The settings on record: atp_concentration=15, read-out: % of control remaining.
Source text: as §1

A further test deals with EphA5(h) (Homo sapiens, UniProt P54756). The settings on record: atp_concentration=10, read-out: % of control remaining.
Source text: as §1

Like-named read-outs stand apart in the source and are kept apart here.

PAK2(h), sequence (Q13177 whole entry): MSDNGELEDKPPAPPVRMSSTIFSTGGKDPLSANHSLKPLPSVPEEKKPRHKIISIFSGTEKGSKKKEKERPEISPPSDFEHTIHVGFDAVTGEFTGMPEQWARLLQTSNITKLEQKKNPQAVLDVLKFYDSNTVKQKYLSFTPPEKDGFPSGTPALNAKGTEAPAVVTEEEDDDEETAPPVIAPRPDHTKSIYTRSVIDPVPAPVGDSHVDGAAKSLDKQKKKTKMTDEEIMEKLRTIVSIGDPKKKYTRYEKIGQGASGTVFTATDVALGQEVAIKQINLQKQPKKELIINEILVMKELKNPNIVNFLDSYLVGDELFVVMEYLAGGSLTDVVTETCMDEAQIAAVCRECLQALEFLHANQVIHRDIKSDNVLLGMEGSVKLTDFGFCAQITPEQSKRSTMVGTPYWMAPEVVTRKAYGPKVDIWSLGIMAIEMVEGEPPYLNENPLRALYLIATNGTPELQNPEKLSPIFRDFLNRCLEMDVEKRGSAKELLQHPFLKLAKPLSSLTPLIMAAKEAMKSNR
T2 sequence (P48736 whole entry): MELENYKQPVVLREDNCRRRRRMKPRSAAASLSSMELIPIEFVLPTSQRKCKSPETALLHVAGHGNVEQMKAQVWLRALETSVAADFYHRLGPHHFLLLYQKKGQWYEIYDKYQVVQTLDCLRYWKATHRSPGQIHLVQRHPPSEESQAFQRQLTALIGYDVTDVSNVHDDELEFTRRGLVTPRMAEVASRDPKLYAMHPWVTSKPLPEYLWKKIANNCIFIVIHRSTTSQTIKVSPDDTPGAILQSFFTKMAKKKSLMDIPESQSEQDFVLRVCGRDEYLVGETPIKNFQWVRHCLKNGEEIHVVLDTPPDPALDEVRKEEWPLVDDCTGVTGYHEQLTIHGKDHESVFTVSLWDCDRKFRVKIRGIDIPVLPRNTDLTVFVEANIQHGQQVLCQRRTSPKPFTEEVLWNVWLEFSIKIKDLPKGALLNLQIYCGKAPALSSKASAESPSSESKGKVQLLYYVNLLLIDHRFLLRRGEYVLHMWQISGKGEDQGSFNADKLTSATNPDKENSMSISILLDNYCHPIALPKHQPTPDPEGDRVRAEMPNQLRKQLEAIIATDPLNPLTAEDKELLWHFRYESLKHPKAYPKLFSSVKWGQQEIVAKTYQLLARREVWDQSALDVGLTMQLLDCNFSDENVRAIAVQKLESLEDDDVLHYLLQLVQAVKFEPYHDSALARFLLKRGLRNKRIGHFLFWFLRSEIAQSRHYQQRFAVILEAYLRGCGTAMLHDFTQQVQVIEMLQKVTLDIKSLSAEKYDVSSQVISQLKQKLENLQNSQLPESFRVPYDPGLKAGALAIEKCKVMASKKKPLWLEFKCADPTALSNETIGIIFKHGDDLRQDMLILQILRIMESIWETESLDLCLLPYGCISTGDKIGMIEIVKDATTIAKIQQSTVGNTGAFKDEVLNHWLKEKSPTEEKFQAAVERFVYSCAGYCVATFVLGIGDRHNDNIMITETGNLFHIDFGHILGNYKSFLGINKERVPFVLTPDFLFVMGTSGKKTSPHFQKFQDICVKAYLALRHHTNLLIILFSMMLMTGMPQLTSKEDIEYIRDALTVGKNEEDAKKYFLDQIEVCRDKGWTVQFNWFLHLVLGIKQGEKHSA

Turning to `CC(C)[C@@H](Nc1ncnc2[nH]c(-c3cnn(C)c3C#N)cc12)c1ccc2c(n1)OCCO2` [ASAP-0010716], the remaining activity at 10 µM was determined as 89% on PRAK(h) (batch_name=ASAP-0010716-002); 78% on PI3 Kinase (p120γ)(h) (batch_name=ASAP-0010716-002); 76% at NEK2(h) (batch_name=ASAP-0010716-002); 84% in test [1] (batch_name=ASAP-0010716-002); 94% at IGF-1R(h) (batch_name=ASAP-0010716-002); 90% on c-RAF(h) (batch_name=ASAP-0010716-002). The remaining activity at 10 µM is 99% at AMPKα1(h) (batch_name=ASAP-0010716-002), 99% on PAK2(h) (batch_name=ASAP-0010716-002), 106% at eEF-2K(h) (batch_name=ASAP-0010716-002) and 90% at EphA5(h) (batch_name=ASAP-0010716-002).
For the compound `Cn1ncc(-c2cc3c(N[C@@H](c4ccc5c(n4)OCCO5)C(C)(C)C)ncnc3[nH]2)c1C#N` [ASAP-0011221], the remaining activity at 10 µM was determined as 86% at PRAK(h) (batch_name=ASAP-0011221-002); 88% at PI3 Kinase (p120γ)(h) (batch_name=ASAP-0011221-002); 104% at NEK2(h) (batch_name=ASAP-0011221-002); 91% in test [1] (batch_name=ASAP-0011221-002); 77% on IGF-1R(h) (batch_name=ASAP-0011221-002); 87% at c-RAF(h) (batch_name=ASAP-0011221-002). Also, the remaining activity at 10 µM at AMPKα1(h) (batch_name=ASAP-0011221-002) was determined as 109%; on PAK2(h) (batch_name=ASAP-0011221-002), 111%; at eEF-2K(h) (batch_name=ASAP-0011221-002), 124%; on EphA5(h) (batch_name=ASAP-0011221-002), 102%.
In the case of `CC(C)C(Nc1ncnc2[nH]c(C(=O)NC3CCN(C)C3)cc12)c1ccc2c(c1)S(=O)(=O)CCC2` (centres unmarked) [ASAP-0011198], the remaining activity at 10 µM amounted to 111% at PRAK(h) (batch_name=ASAP-0011198-002); 97% on PI3 Kinase (p120γ)(h) (batch_name=ASAP-0011198-002); 118% at NEK2(h) (batch_name=ASAP-0011198-002); 99% in test [1] (batch_name=ASAP-0011198-002); 104% at IGF-1R(h) (batch_name=ASAP-0011198-002); 105% at c-RAF(h) (batch_name=ASAP-0011198-002). The remaining activity at 10 µM amounted to 107% on AMPKα1(h) (batch_name=ASAP-0011198-002), 99% on PAK2(h) (batch_name=ASAP-0011198-002), 89% at eEF-2K(h) (batch_name=ASAP-0011198-002) and 100% at EphA5(h) (batch_name=ASAP-0011198-002).
As for `CC(C)[C@H](Nc1ncnc2[nH]ccc12)c1ccc2c(c1)S(=O)(=O)CCC2` [ASAP-0008674], the remaining activity at 10 µM on PRAK(h) (batch_name=ASAP-0008674-002) was found to be 102%; on PI3 Kinase (p120γ)(h) (batch_name=ASAP-0008674-002), 98%; at NEK2(h) (batch_name=ASAP-0008674-002) it was 109%; in [1] (batch_name=ASAP-0008674-002), 100%; on IGF-1R(h) (batch_name=ASAP-0008674-002) it was 100%; on c-RAF(h) (batch_name=ASAP-0008674-002), 107%. Besides, the remaining activity at 10 µM on AMPKα1(h) (batch_name=ASAP-0008674-002) amounted to 104%; at PAK2(h) (batch_name=ASAP-0008674-002), 102%; at eEF-2K(h) (batch_name=ASAP-0008674-002) it was 93%; on EphA5(h) (batch_name=ASAP-0008674-002) it was 102%.
For `CC(C)[C@@H](Nc1ncnc2[nH]c(-c3cnn(C)c3C#N)cc12)c1ccc2c(n1)OCCO2` [ASAP-0008418], the remaining activity at 10 µM at PRAK(h) (batch_name=ASAP-0008418-001) was found to be 95%; on PI3 Kinase (p120γ)(h) (batch_name=ASAP-0008418-001), 63%; on NEK2(h) (batch_name=ASAP-0008418-001) it was 94%; in [1] (batch_name=ASAP-0008418-001), 92%; on IGF-1R(h) (batch_name=ASAP-0008418-001), 108%; at c-RAF(h) (batch_name=ASAP-0008418-001), 81%. Moreover, the remaining activity at 10 µM on AMPKα1(h) (batch_name=ASAP-0008418-001) was determined as 116%; at PAK2(h) (batch_name=ASAP-0008418-001), 95%; at eEF-2K(h) (batch_name=ASAP-0008418-001), 111%; at EphA5(h) (batch_name=ASAP-0008418-001), 91%.

Source of the values: article doi:10.1101/2024.08.19.608619, “Discovery of potent SARS-CoV-2 nsp3 macrodomain inhibitors uncovers lack of translation to cellular antiviral response” (bioRxiv, 2024).
